Experimental data reported in patent publication US9586974B2, “Cyclic N-acyl O-amino phenol CBI derivative” (THE SCRIPPS RESEARCH LINSTITUTE, priority 2013, dated 2017).
Values joined by “and” are separate entries in the source; they are usually repeats but may differ in a detail not shown here. Equal entries are not always repeated. “Also recorded” adds a separate entry of the source. Where two headings read alike, the source gives them in different places.

Tests used:
[1] = tested on: L1210 (ATCC CCL-219) mouse lymphocytic leukemia cells; assay: Cell growth inhibition assay (phosphatase readout); format: cell-based
Protocol: Compounds were tested for their cell growth inhibition of L1210 (ATCC CCL-219) mouse lymphocytic leukemia cells. A population of cells (>1×10^6 cells/mL as determined with a hemocytometer) was diluted with an appropriate amount of Dulbecco-modified Eagle Medium (DMEM, Gibco) containing 10% fetal bovine serum (FBS, Gibco) to a final concentration of 30,000 cells/mL. To each well of a 96-well plate (Corning® Costar®), 100 μL of the cell-media solution was added with a multichannel pipette. The cultures were incubated at 37° C. in an atmosphere of 5% CO2 and 95% humidified air for 24 hours. The test compounds were added to the plate as follows: test substances were diluted in DMSO to a concentration of 1 mM and 10-fold serial dilutions were performed on a separate 96-well plate. Fresh culture medium (100 μL) was added to each well of cells to constitute 200 μL of medium per well followed by 2 μL of each test agent. Compounds were tested in duplicate (≧2 times) at six concentrations between 0-100 nM or 0-1000 nM. Following addition, cultures were incubated for an additional 72 hours.
A phosphatase assay was used to establish the IC50 values as follows: the media in each cell was removed and 100 μL of phosphatase solution (100 mg phosphatase substrate in 30 mL 0.1 M NaOAc, pH 5.5, 0.1% Triton® X-100 buffer) was added to each well. The plates were incubated at 37° C. for 5 minutes. After the given incubation time, 50 μL of 0.1 N NaOH was added to each well and the absorption at 405 nm was determined using a 96 well plate reader. As the absorption is directly proportional to the number of living cells, the IC50 values were calculated and the reported values represent of the average of ≧4 determinations (SD±10%).

[2] = tested on: L1210 murine leukemia cells; assay: In vivo antitumor activity, L1210 implanted ip in B6D2F1 mice; design: species or system mouse
Protocol: [Wolfe et al., J. Med. Chem. 2012, 55:5878-5886.] Therefore, the preliminary evaluation of the in vivo antitumor activity of the cyclic N—O pro-drugs was assessed with Compound (+)-6 and was conducted alongside seco-CBI-indole2 (Compound 4) in an antitumor model consisting of L1210 murine leukemia cells implanted ip in B6D2F1 mice traditionally used to initially compare new duocarmycin derivatives (Table 3, below).
B6D2F1 mice were injected intraperitoneally (i.p.) with syngeneic L1210 cells (1×10^6) on day 0. Ten mice were randomly assigned to control vehicle or treatment groups for Compounds (+)-4 and (+)-6 at doses of 60, 100, 250, and 500 μg/kg/inj for Compounds (+)-4 or 60, 200, 500, 1000, and 2500 μg/kg/inj for Compounds (+)-6. Compounds (+)-4 and (+)-6 were formulated in 100% DMSO. Both compounds were injected i.p. on days 1, 5, and 9. Following injection of tumor cells, animals were monitored daily and weighed two times per week. Percent survival (T/C) for treated and control groups were determined by dividing the total survival days for each treatment group by the total survival days for the control group and multiplying×100. All animal studies were carried out in the animal facilities of The University of Kansas Medical Center with strict adherence to the guidelines of the IACUC Animal Welfare Committee of KUMC (IACUC approval #2009-1837).

[3] = tested on: L1210 murine leukemia cells; conditions: literature dose range; cited from earlier work
w794 DNA = assay: DNA alkylation studies, cell-free (thermally induced strand cleavage, PAGE autoradiography); format: biochemical; conditions: for DNA alkylation: no deliberate activation
Protocol: DNA-agent incubation at 23° C. for 2 hours (h), removal of unbound agent by EtOH precipitation, and 30 minute thermolysis (100° C.) followed by 8% denaturing PAGE and autoradiography. Lane 1, control DNA; lanes 2-5, Sanger G, C, A, and T sequencing reactions; lane 6, Compound (+)-4 (1×10^−5 M); lane 7, Compound (+)-7 (1×10^−5 M); lanes 8-9, Compound (+)-7 (1×10^−5 M) incubated at 37° C. with 1 M L-glutathione for 12 hours and 24 hours.
DNA-agent incubation at 23° C. for 2 hours (h), removal of unbound agent by EtOH precipitation, and 30 minutes thermolysis (100° C.) followed by 8% denaturing PAGE and autoradiography.
Lane 1, control DNA; lanes 2-5, Sanger G, C, A, and T sequencing reactions; lanes 6-8, Compound (+)-4 (1×10^−4 to 1×10^−6 M); lanes 9-11, Compound (+)-6 (1×10^−2 to 1×10^−4 M).
Lane 1, control DNA; lanes 2-5, Sanger G, C, A, and T sequencing reactions; lanes 6-11, Compound (+)-4 (1×10^−4M, t=2, 4, 6, 8, 24, 48 hours); lanes 12-15, Compound (+)-6 (1×10^−2M, t=2, 4, 6, 8 hours).
Lane 1, control DNA; lanes 2-5, Sanger G, C, A, and T sequencing reactions; lane 6, Compound (+)-4 (1×10^−4 M); lanes 7-9, Compound (±)-19 (1×10^−3 to 1×10^−5 M).
See Boger et al., Tetrahedron 1991, 47:2661-2682 for full details of the DNA alkylation assay. The DNA alkylation reactions were conducted at […] with 5′-^32P-end-labeled w794 DNA, which contains a single major alkylation site for the natural products.

[4] = Stability to basic conditions (NaHCO3); format: physicochemical; conditions: 23° C.
physchem = conditions: buffer
[5] = 60 μg/kg i.p. on days 1, 5 and 9
[6] = 100 μg/kg i.p. on days 1, 5 and 9
[7] = 250 μg/kg i.p. on days 1, 5 and 9
[8] = 500 μg/kg i.p. on days 1, 5 and 9
[9] = Mus musculus, L1210, 72 h, read-out: IC50 L1210 natural, natural enantiomer, 72 hours
[10] = 1000 μg/kg i.p. on days 1, 5 and 9
[11] = 2500 μg/kg i.p. on days 1, 5 and 9
[12] = Mus musculus, L1210, 72 h, read-out: IC50 L1210 unnatural, unnatural enantiomer, 72 hours

O=C(Nc1ccc2[nH]c(C(=O)N3C[C@@H](CCl)c4c3cc(O)c3ccccc43)cc2c1)c1cc2ccccc2[nH]1 [Compound 4, seco-CBI-indole2, reference compound]
IC50 ([1]; Mus musculus, L1210, natural enantiomer, 72 hours, read-out: IC50 L1210 natural): 0.03 nM | IC50 ([1]; Mus musculus, L1210, unnatural enantiomer, 72 hours, read-out: IC50 L1210 unnatural): 0.9 nM | MSP (Mean Survival Period) [2, 5]: >50 days | Surviving Mice (live animals after 366 days) [2, 5]: 1/10 | T/C = Treated/Control (MSP) × 100 [2, 5]: >284 | MSP (Mean Survival Period) [2, 6]: 6.4 days | Surviving Mice (live animals after 366 days) [2, 6]: 0/10 | T/C = Treated/Control (MSP) × 100 [2, 6]: 36 | MSP (Mean Survival Period) [2, 7]: 3.7 days | Surviving Mice (live animals after 366 days) [2, 7]: 0/10 | T/C = Treated/Control (MSP) × 100 [2, 7]: 21 | MSP (Mean Survival Period) [2, 8]: 3.0 days | Surviving Mice (live animals after 366 days) [2, 8]: 0/10 | T/C = Treated/Control (MSP) × 100 [2, 8]: 17

O=C(Nc1ccc2[nH]c(C(=O)N3C[C@@H](CCl)c4c3cc(O)c3ccccc43)cc2c1)c1cc2ccccc2[nH]1 [Compound (+)-4, seco-CBI-indole2, reference compound]
Surviving Mice (live animals after 366 days) [2, 5]: 1/10 | T/C = Treated/Control (MSP) × 100 [2, 5]: > 284 and 284 | toxicity in tumor-bearing mice ([2]; all higher doses (100-500 μg/kg)): proved toxic leading to premature death of the animals due to drug toxicity | toxicity in tumor-bearing mice ([2]; dosing at 60 to 500 μg/kg): premature death | therapeutic window (dose range) [3]: 30 to 100 µg/kg

CC(C)(C)OC(=O)N1CC2CC23C1=CC(=O)c1ccccc13 (single isomer, unassigned; (+)) [(+)-N—Boc-CBI, reference compound]
IC50 ([1]; natural enantiomer, 72 hours, read-out: IC50 L1210 natural): 80 nM | IC50 ([1]; unnatural enantiomer, 72 hours, read-out: IC50 L1210 unnatural): 900 nM

CN1Oc2cc3c(c4cccc(c24)C1=O)[C@H](CCl)CN3C(=O)c1cc2cc(NC(=O)c3cc4ccccc4[nH]3)ccc2[nH]1 [Compound (+)-6, N-(2-(10-(Chloromethyl)-5-methyl-4-oxo-5,8,9,10-tetrahydro-4H-pyrrolo[3′,2′:5,6]naphtho[1,8-de][1,2]oxazine-8-carbonyl)-1H-indol-5-yl)-1H-indole-2-carboxamide]
DNA alkylation (w794 DNA): incapable of alkylating DNA | difference in potency between Compound (+)-6 and Compound (+)-7 ([1]; L1210): 3 fold | IC50 [1, 9]: 0.99 nM | IC50 ([1]; read-out: IC50 L1210 natural, natural enantiomer, 72 hours): ~1 nM | T/C = Treated/Control (MSP) × 100 ([2]; 200 μg/kg i.p. on days 1, 5 and 9): 386 | Surviving Mice (live animals after 366 days) [2, 8]: 4/10 | T/C = Treated/Control (MSP) × 100 [2, 8]: > 1142 | Surviving Mice (live animals after 366 days) [2, 10]: 4/10 | T/C = Treated/Control (MSP) × 100 [2, 10]: > 1130 | Surviving Mice (live animals after 366 days) [2, 11]: 6/10 | T/C = Treated/Control (MSP) × 100 [2, 11]: > 1500 | delayed toxicity in long term survivors ([2]; 366 days (1 year)): no evidence of a delayed toxicity | tolerance at the injection sites ([2]; i.p. administration, versus free drug): tolerated at the injection sites of the animals much better than the free drug | dosing permitted over that of the free drug ([2]; versus free drug): ≥ 40 fold | in vivo potency relative to the free drug ([2]; versus free drug): ≤ 3 fold

CN1Oc2cc3c(c4cccc(c24)C1=O)C(CCl)CN3C(=O)OC(C)(C)C (stereo not drawn) [Compound 12, tert-Butyl 10-(Chloromethyl)-5-methyl-4-oxo-9,10-dihydro-4H-pyrrolo[3′,2′:5,6]naphtho[1,8-de][1,2]oxazine-8(5H)-carboxylate]
time unreactive toward NaHCO3 ([4]; NaHCO3 in THF, MeOH, DMF/H2O): more than 5 days | IC50 [1, 9]: 850 nM | IC50 [1, 12]: > 1000 nM | half-life (physchem): 1440 min

O=C(Nc1ccc2[nH]c(C(=O)N3C[C@@H](CCl)c4c3cc3c5c(cccc45)C(=O)NO3)cc2c1)c1cc2ccccc2[nH]1 [Compound (+)-7, N-(2-(10-(Chloromethyl)-4-oxo-5,8,9,10-tetrahydro-4H-pyrrolo[3′,2′:5,6]naphtho[1,8-de][1,2]oxazine-8-carbonyl)-1H-indol-5-yl)-1H-indole-2-carboxamide]
DNA alkylation after thiol activation (w794 DNA; incubated with 1 M L-glutathione at 37° C.): results in DNA alkylation; also recorded: slow DNA alkylation reaction | DNA alkylation (w794 DNA): No DNA alkylation; also recorded: failed to alkylate DNA

COC(=O)c1cc2c([nH]1)C(=O)C=C1N(C(=O)c3cc4cc(OC)c(OC)c(OC)c4[nH]3)C[C@H]3CC123 (stereo partly drawn) [Compound 1, Duocarmycin SA, reference compound]
IC50 [1, 9]: 0.01 nM | IC50 [1, 12]: 0.1 nM

CC(C)(C)OC(=O)N1CC(CCl)c2c1cc1c3c(cccc23)C(=O)NO1 (stereo not drawn) [Compound 15, tert-Butyl 10-(Chloromethyl)-4-oxo-9,10-dihydro-4H-pyrrolo[3′,2′:5,6]naphtho[1,8-de][1,2]oxazine-8(5H)-carboxylate]
half-life ([4]; NaHCO3 in MeOH, read-out: t1/2 with NaHCO3 (converted)): 2.92 days | stability to NaHCO3 ([4]; NaHCO3 in THF/H2O): stable | IC50 [1, 9]: 650 nM | IC50 [1, 12]: > 1000 nM | half-life (physchem): 120 min

CNC(=O)c1cccc2c3c(cc(O)c12)N(C(=O)c1cc2cc(NC(=O)c4cc5ccccc5[nH]4)ccc2[nH]1)CC3CCl (racemic) [Compound 19, 3-(5-(1H-Indole-2-carboxamido)-1H-indole-2-carbonyl)-1-(chloromethyl)-5-hydroxy-N-methyl-1,2-dihydrobenzo-[e]indole-6-carboxamide]
DNA alkylation (w794 DNA): alkylate DNA in a manner analogous to Compound (+)-4 | times less potent than seco-(+)-CBI-indole2 ([1]; L1210, racemic mixture): 2.5 times | IC50 ([1]; Mus musculus, L1210, 72 h, read-out: IC50 L1210, tested as a racemic mixture, 72 hours): 0.073 nM

COc1c(O)c2c(c3cc(C(=O)N4CCc5c4c(O)c(OC)c4[nH]c(C(=O)N6C[C@H]7CC78C6=CC(=O)c6[nH]cc(C)c68)cc54)[nH]c13)CCN2C(N)=O (stereo partly drawn) [Compound 2, CC-1065, reference compound]
IC50 [1, 9]: 0.02 nM | IC50 [1, 12]: 0.02 nM
